The values that follow come from ChEMBL document CHEMBL3044903, “Synthesis and Herbicidal Activity of Novel 3-Alkoxycarbonyl-3-aryl-2,3-dihydro-2-oxo-1H-pyrrole Derivatives” (J Pestic Sci, 2004).

Data set [1] has as its system Schoenoplectiella juncoides. As to the kind of experiment: Post-emergence herbicide activity against Schoenoplectiella juncoides under greenhouse condition at 10 g a.i/a treated at one-leaf stage measured after 3 weeks. It is filed as functional.
Data set [2] concerns Schoenoplectiella juncoides. Briefly: Pre-emergence herbicide activity against Schoenoplectiella juncoides under greenhouse condition at 1 g a.i/a measured after 3 weeks. It is filed as functional.
Data set [3] deals with Echinochloa oryzicola. As to the kind of experiment: Pre-emergence herbicide activity against Echinochloa oryzicola under greenhouse condition at 10 g a.i/a measured after 3 weeks. It is filed as functional.
Data set [4] relates to Echinochloa oryzicola. Briefly: Post-emergence herbicide activity against Echinochloa oryzicola under greenhouse condition at 1 g a.i/a treated at one-leaf stage measured after 3 weeks. It is filed as functional.
In data set [5] the test system is Echinochloa oryzicola. As to the kind of experiment: Pre-emergence herbicide activity against Echinochloa oryzicola under greenhouse condition at 1 g a.i/a measured after 3 weeks. It is filed as functional.
For data set [6], the system named is Echinochloa oryzicola. As to the kind of experiment: Post-emergence herbicide activity against Echinochloa oryzicola under greenhouse condition at 10 g a.i/a treated at one-leaf stage measured after 3 weeks. It is filed as functional.
Data set [7] deals with Schoenoplectiella juncoides. As to the kind of experiment: Pre-emergence herbicide activity against Schoenoplectiella juncoides under greenhouse condition at 10 g a.i/a measured after 3 weeks. It is filed as functional.
Data set [8] deals with Schoenoplectiella juncoides. As to the kind of experiment: Post-emergence herbicide activity against Schoenoplectiella juncoides under greenhouse condition at 1 g a.i/a treated at one-leaf stage measured after 3 weeks. It is filed as functional.
Data set [9] relates to Echinochloa oryzicola. Briefly: Herbicidal activity against Echinochloa oryzicola at 1 g a.i/a treated at 1.5 leaf stage measured after 3 weeks. It is filed as functional.
The test system of data set [10] is Echinochloa oryzicola. As to the kind of experiment: Herbicidal activity against Echinochloa oryzicola at 2.5 g a.i/a treated at 2.5 leaf stage measured after 3 weeks. It is filed as functional.
Data set [11] relates to Echinochloa oryzicola. As to the kind of experiment: Herbicidal activity against Echinochloa oryzicola at 1 g a.i/a treated at 2.5 leaf stage measured after 3 weeks. It is filed as functional.
Data set [12] relates to Oryza sativa. As to the kind of experiment: Phytotoxicity against two-leaf stage Oryza sativa cv. Nipponbare (rice) planted 2 cm depth at 2.5 g a.i/a measured after 3 weeks. It is filed as organism-based. The conditions noted are these: in vivo, 504 h.
Data set [13] has as its system Echinochloa oryzicola. As to the kind of experiment: Herbicidal activity against Echinochloa oryzicola at 5.0 g a.i/a treated at 1.5 leaf stage measured after 3 weeks. It is filed as functional.
Data set [14] relates to Echinochloa oryzicola. As to the kind of experiment: Herbicidal activity against Echinochloa oryzicola at 5.0 g a.i/a treated at 2.5 leaf stage measured after 3 weeks. It is filed as functional.
Data set [15] concerns Echinochloa oryzicola. Briefly: Herbicidal activity against Echinochloa oryzicola at 2.5 g a.i/a treated at 1.5 leaf stage measured after 3 weeks. It is filed as functional.
Data set [16] deals with Oryza sativa. Briefly: Phytotoxicity against two-leaf stage Oryza sativa cv. Nipponbare (rice) planted zero cm depth at 1 g a.i/a measured after 3 weeks. It is filed as organism-based. The conditions noted are these: in vivo, other, 504 h.
For data set [17], the system named is Oryza sativa. As to the kind of experiment: Phytotoxicity against two-leaf stage Oryza sativa cv. Nipponbare (rice) planted zero cm depth at 5.0 g a.i/a measured after 3 weeks. The conditions noted are these: in vivo, 504 h. It is filed as organism-based.
The test system of data set [18] is Oryza sativa. As to the kind of experiment: Phytotoxicity against two-leaf stage Oryza sativa cv. Nipponbare (rice) planted 2 cm depth at 1 g a.i/a measured after 3 weeks. It is filed as organism-based. The conditions noted are these: in vivo, other, 504 h.
Data set [19] concerns Oryza sativa. As to the kind of experiment: Phytotoxicity against two-leaf stage Oryza sativa cv. Nipponbare (rice) planted zero cm depth at 2.5 g a.i/a measured after 3 weeks. The conditions noted are these: in vivo, other, 504 h. It is filed as organism-based.
The subject of data set [20] is Oryza sativa. Briefly: Phytotoxicity against two-leaf stage Oryza sativa cv. Nipponbare (rice) planted 2 cm depth at 5.0 g a.i/a measured after 3 weeks. It is filed as organism-based. The conditions noted are these: in vivo, 504 h.

For `COC(=O)C1(c2ccccc2)C(=O)N(C(C)(C)c2cc(Cl)cc(Cl)c2)C=C1C(F)F` (centres undefined), the Activity in data set [1] came out at 50.1%; in [2], 0%; in the data set on Echinochloa oryzicola [3] it was 100%; with Echinochloa oryzicola [4] it was 0%; in the data set with Echinochloa oryzicola [5] it was 0%; in the data set with Echinochloa oryzicola [6], 87.6%. For the same molecule, the Activity was determined as 87.6% in data set [7] and 0% in data set [8].
Turning to `C=C1CN(C(C)(C)c2cc(Cl)cc(Cl)c2)C(=O)C1(C(=O)OC)c1ccccc1` (centres undefined), the Activity in the data set with Echinochloa oryzicola [9] is 99%; in the data set on Echinochloa oryzicola [10], 99%; in the data set with Echinochloa oryzicola [11], 40%; in the data set on Oryza sativa [12], 0%; in the data set with Echinochloa oryzicola [13], 100%; in the data set with Echinochloa oryzicola [14], 99%. Besides, the Activity amounted to 99% in the data set with Echinochloa oryzicola [15]; 70% with Oryza sativa [16]; 99% in the data set on Oryza sativa [17]; 0% in the data set on Oryza sativa [18]; 95% in the data set with Oryza sativa [19]; 0% with Oryza sativa [20].
For the molecule `COC(=O)C1(c2ccccc2)C(=O)N(C(C)(C)c2cccc(Cl)c2)C=C1C` (centres undefined), the Activity with Echinochloa oryzicola [9] is reported as 99%; with Echinochloa oryzicola [10] it was 90%; in data set [1], 87.6%; with Echinochloa oryzicola [11], 40%; in data set [2], 50.1%; in the data set with Oryza sativa [12], 0%. Moreover, the Activity with Echinochloa oryzicola [3] is reported as 100%; in the data set with Echinochloa oryzicola [13], 100%; in the data set with Echinochloa oryzicola [14], 99%; in the data set with Echinochloa oryzicola [15], 100%; with Oryza sativa [16], 80%; with Echinochloa oryzicola [4] it was 50.1%. The Activity in the data set on Oryza sativa [17] amounted to 98%; in the data set with Echinochloa oryzicola [5], 100%; with Oryza sativa [18] it was 0%; in the data set on Oryza sativa [19] it was 95%; in the data set with Oryza sativa [20], 0%; in the data set on Echinochloa oryzicola [6], 100%. Moreover, the Activity in [7] was determined as 100%; in data set [8] it was 87.6%.
For the molecule `CC1=CN(C(C)(C)c2cc(Cl)cc(Cl)c2)C(=O)C1(C(=O)OCc1ccccc1)c1ccccc1` (centres undefined), the Activity in data set [1] came to 0%; in data set [2] it was 0%; in the data set on Echinochloa oryzicola [3], 100%; with Echinochloa oryzicola [4], 50.1%; in the data set on Echinochloa oryzicola [5], 0%; with Echinochloa oryzicola [6], 100%. The Activity in data set [7] and in [8] was 0% in each case.
Take `COC(=O)C1(c2ccccc2)C(=O)N(C(C)(C)c2cc(Cl)cc(Cl)c2)C=C1C=O` (centres undefined): the Activity in [1] is 87.6%; in [2] it was 50.1%; in the data set with Echinochloa oryzicola [3] it was 100%; in the data set with Echinochloa oryzicola [4] it was 0%; in the data set on Echinochloa oryzicola [5], 100%; with Echinochloa oryzicola [6], 87.6%. Further, the Activity in data set [7] is reported as 100%; in data set [8], 50.1%.
Turning to `COC(=O)C1(c2ccccc2)C(=O)N(C(C)(C)c2cccc(Cl)n2)C=C1C` (centres undefined), the Activity is 87.6% in data set [1]; 100% in data set [2]; 100% in the data set on Echinochloa oryzicola [3]; 0% in the data set on Echinochloa oryzicola [4]; 100% in the data set with Echinochloa oryzicola [5]; 87.6% in the data set on Echinochloa oryzicola [6]. Besides, the Activity is 100% in data set [7] and 87.6% in data set [8].
Take `COC(=O)C1(c2ccccc2)C(=O)N(C(C)(C)c2cc(Cl)cc(Cl)c2)C=C1/C=N/O` (centres undefined): the Activity is listed as 0.1% in data set [1]; 0% in data set [2]; 100% with Echinochloa oryzicola [3]; 0% in the data set on Echinochloa oryzicola [4]; 0% with Echinochloa oryzicola [5]; 0.1% in the data set on Echinochloa oryzicola [6]. Moreover, the results for the Activity in [7] and in data set [8] were 75.1% and 0%, respectively.
Take `COC(=O)C1(c2ccccc2)C(=O)N(C(C)(C)c2cc(F)cc(F)c2)C=C1C` (centres undefined): the Activity in [1] was 87.6%; in data set [2], 100%; with Echinochloa oryzicola [3] it was 100%; in the data set on Echinochloa oryzicola [4], 50.1%; with Echinochloa oryzicola [5], 75.1%; with Echinochloa oryzicola [6], 100%. Also, the Activity in [7] is on record as 100%; in [8], 87.6%.
For `CCOC(=O)C1(c2ccccc2)C(=O)N(C(C)(C)c2cc(Cl)cc(Cl)c2)C=C1C` (centres undefined), the Activity in data set [1] came out at 75.1%; in data set [2], 75.1%; with Echinochloa oryzicola [3], 100%; in the data set with Echinochloa oryzicola [4], 87.6%; in the data set on Echinochloa oryzicola [5] it was 100%; in the data set with Echinochloa oryzicola [6] it was 100%. Moreover, the Activity was determined as 100% in data set [7] and 0% in data set [8].
For `CC1=C(c2ccccc2)C(=O)N(C(C)(C)c2cc(Cl)cc(Cl)c2)C1`, the Activity with Echinochloa oryzicola [9] was 60%; in the data set on Echinochloa oryzicola [10], 95%; in data set [1] it was 87.6%; in the data set on Echinochloa oryzicola [11], 40%; in data set [2], 100%; with Oryza sativa [12] it was 0%. The Activity is 100% in the data set with Echinochloa oryzicola [3]; 98% in the data set on Echinochloa oryzicola [13]; 98% in the data set with Echinochloa oryzicola [14]; 95% with Echinochloa oryzicola [15]; 87.6% in the data set with Echinochloa oryzicola [4]; 98% with Oryza sativa [17]. The Activity amounted to 100% in the data set with Echinochloa oryzicola [5]; 90% in the data set with Oryza sativa [19]; 0% in the data set on Oryza sativa [20]; 100% in the data set on Echinochloa oryzicola [6]; 100% in data set [7]; 75.1% in [8].
Regarding `COC(=O)C1(c2ccccc2)C(=O)N(C(C)(C)c2cc(Cl)cc(Cl)c2)C=C1C#N` (centres undefined), the Activity was 0.1% in [1]; 0% in data set [2]; 100% with Echinochloa oryzicola [3]; 0% in the data set on Echinochloa oryzicola [4]; 0% in the data set with Echinochloa oryzicola [5]; 0% with Echinochloa oryzicola [6]. In addition, the Activity was 87.6% in [7] and 0% in [8].
Take `C=C1CN(C(C)(C)c2cc(Cl)cc(Cl)c2)C(=O)C1(C(=O)OC)c1ccccc1F` (centres undefined): the Activity in the data set with Echinochloa oryzicola [9] is 99%; in the data set on Echinochloa oryzicola [10], 95%; with Echinochloa oryzicola [11] it was 65%; in the data set with Oryza sativa [12], 0%; with Echinochloa oryzicola [13], 99%; in the data set on Echinochloa oryzicola [14] it was 95%. Besides, the Activity in the data set with Echinochloa oryzicola [15] is 99%; in the data set on Oryza sativa [17], 98%; with Oryza sativa [19] it was 80%; in the data set with Oryza sativa [20], 0%.
On to `COC(=O)C1(c2ccccc2)C(=O)N(C(C)(C)c2ccc3ccccc3c2)C=C1C` (centres undefined), for which the Activity in data set [1] amounted to 87.6%; in data set [2] it was 0%; in the data set with Echinochloa oryzicola [3] it was 100%; in the data set on Echinochloa oryzicola [4] it was 0.1%; with Echinochloa oryzicola [5], 87.6%; in the data set on Echinochloa oryzicola [6], 100%. Further, the Activity in [7] stood at 87.6%; in [8], 0%.
`COC(=O)C1(c2ccccc2)C(=O)N(C(C)(C)c2cc(Cl)cc(Cl)c2)C=C1COC(C)=O` (centres undefined): the Activity in [1] is listed as 87.6%; in data set [2] it was 0%; in the data set on Echinochloa oryzicola [3], 100%; in the data set on Echinochloa oryzicola [4], 0.1%; with Echinochloa oryzicola [5], 75.1%; in the data set with Echinochloa oryzicola [6], 100%. The Activity was 100% in [7] and 0.1% in [8].
Take `COC(=O)C1(c2ccccc2)C(=O)N(C(C)(C)c2cnc3ccccc3c2)C=C1C` (centres undefined): the Activity in data set [1] is 87.6%; in data set [2], 50.1%; in the data set with Echinochloa oryzicola [3], 100%; in the data set with Echinochloa oryzicola [4] it was 0%; with Echinochloa oryzicola [5], 100%; in the data set on Echinochloa oryzicola [6] it was 100%. Also, the Activity in [7] is 100%; in data set [8] it was 0%.
For `COCC1=CN(C(C)(C)c2cc(Cl)cc(Cl)c2)C(=O)C1(C(=O)OC)c1ccccc1` (centres undefined), the Activity in the data set on Echinochloa oryzicola [10] was found to be 65%; in [1], 87.6%; in data set [2] it was 50.1%; in the data set on Oryza sativa [12], 0%; in the data set on Echinochloa oryzicola [3], 100%; in the data set on Echinochloa oryzicola [13], 100%. Also, the Activity in the data set with Echinochloa oryzicola [14] is 98%; with Echinochloa oryzicola [15], 99%; in the data set on Echinochloa oryzicola [4], 75.1%; in the data set on Oryza sativa [17] it was 98%; with Echinochloa oryzicola [5], 100%; in the data set on Oryza sativa [19] it was 30%. Moreover, the Activity turned out to be 0% with Oryza sativa [20], 100% in the data set on Echinochloa oryzicola [6], 100% in data set [7] and 87.6% in [8].
